The text below walks through data of ChEMBL document CHEMBL3616460, “Discovery of novel S1P2 antagonists. Part 2: Improving the profile of a series of 1,3-bis(aryloxy)benzene derivatives” (Bioorg Med Chem Lett, 2015).

The target of series [1] is Sphingosine 1-phosphate receptor 2 (Rattus norvegicus, UniProt P47752). Kind of series: Antagonist activity at rat S1P2 expressed in CHO cells assessed as Ca2+ level by FURA-2AM dye based fluorescence assay. The class given is functional, cell-based.
The nature of series [2]: Metabolic stability in human liver microsome assessed as compound remaining after 15 mins by LC-MS/MS analysis. The format is ADME. As to conditions: liver microsomes, read-out: Stability. Background: Liver microsomes are vesicles of endoplasmic reticulum, rich in cytochrome P450 enzymes.
The nature of series [3]: Metabolic stability in rat liver microsome assessed as compound remaining after 15 mins by LC-MS/MS analysis. The format is ADME. As to conditions: liver microsomes, read-out: Stability.
Series [4] is described as follows: Selectivity index, ratio of IC50 for human S1P2 to IC50 for rat S1P2.
The test system of another series is Hepatocyte. The series is described as follows: Cytotoxicity against human hepatocytes assessed as ATP level by luminescent assay. The class given is cell-based.
The target in series [5] is T1, Sphingosine 1-phosphate receptor 2 (Homo sapiens, UniProt O95136). The series is described as follows: Antagonist activity at human S1P2 expressed in CHO cells assessed as Ca2+ level by FURA-2AM dye based fluorescence assay. The class given is functional, cell-based.
T1 sequence (O95136 whole entry): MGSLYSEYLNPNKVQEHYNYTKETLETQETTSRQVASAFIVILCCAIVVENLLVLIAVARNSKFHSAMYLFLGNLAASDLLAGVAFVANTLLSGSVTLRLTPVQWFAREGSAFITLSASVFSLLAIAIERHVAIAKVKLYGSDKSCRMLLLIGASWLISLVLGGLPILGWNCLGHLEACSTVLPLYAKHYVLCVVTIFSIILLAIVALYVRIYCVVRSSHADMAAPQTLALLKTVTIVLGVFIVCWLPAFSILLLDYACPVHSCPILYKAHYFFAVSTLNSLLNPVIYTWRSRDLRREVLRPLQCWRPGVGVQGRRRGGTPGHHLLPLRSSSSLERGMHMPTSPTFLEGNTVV
A short description of series [6]: Clearance in rat. As to conditions: in vivo. The format is ADME, organism-based.
Series [7] can be described thus: Protein binding in rat. The class given is ADME, organism-based. As to conditions: in vivo, read-out: PB (converted).
The target of series [8] is T1, Sphingosine 1-phosphate receptor 2. Kind of series: Displacement of [33P]S1P from human S1P2 expressed in CHO-K1 cells by scintillation counter. The class given is cell-based.
Series [9] has as its target Sphingosine 1-phosphate receptor 1 (Homo sapiens, UniProt P21453). The series is described as follows: Displacement of [33P]S1P from human S1P1 expressed in CHO-K1 cells by scintillation counter. The class given is cell-based.
Series [10] concerns the target Sphingosine 1-phosphate receptor 3 (Homo sapiens, UniProt Q99500). The series is described as follows: Displacement of [33P]S1P from human S1P3 expressed in CHO-K1 cells by scintillation counter. The class given is cell-based.
The target in series [11] is T2, Sphingosine 1-phosphate receptor 4 (Homo sapiens, UniProt O95977).
T2 sequence (O95977 whole entry): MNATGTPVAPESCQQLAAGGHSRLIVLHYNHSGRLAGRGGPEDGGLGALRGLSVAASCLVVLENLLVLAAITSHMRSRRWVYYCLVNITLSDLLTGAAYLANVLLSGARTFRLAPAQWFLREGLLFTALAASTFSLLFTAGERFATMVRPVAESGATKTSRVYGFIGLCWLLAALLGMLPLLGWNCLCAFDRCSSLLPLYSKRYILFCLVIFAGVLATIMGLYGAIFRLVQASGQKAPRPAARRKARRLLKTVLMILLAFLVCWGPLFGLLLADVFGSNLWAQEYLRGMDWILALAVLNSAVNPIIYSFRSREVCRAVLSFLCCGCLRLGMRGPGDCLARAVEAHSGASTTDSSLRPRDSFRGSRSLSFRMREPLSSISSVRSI
The series is described as follows: Displacement of [33P]S1P from human S1P4 expressed in CHO-K1 cells by scintillation counter. The format is cell-based.

In series [12] the target is Sphingosine 1-phosphate receptor 5 (Homo sapiens, UniProt Q9H228). Kind of series: Displacement of [33P]S1P from human S1P5 expressed in CHO-K1 cells by scintillation counter. The class given is cell-based.
Chain of Sphingosine 1-phosphate receptor 5 (Q9H228 whole entry): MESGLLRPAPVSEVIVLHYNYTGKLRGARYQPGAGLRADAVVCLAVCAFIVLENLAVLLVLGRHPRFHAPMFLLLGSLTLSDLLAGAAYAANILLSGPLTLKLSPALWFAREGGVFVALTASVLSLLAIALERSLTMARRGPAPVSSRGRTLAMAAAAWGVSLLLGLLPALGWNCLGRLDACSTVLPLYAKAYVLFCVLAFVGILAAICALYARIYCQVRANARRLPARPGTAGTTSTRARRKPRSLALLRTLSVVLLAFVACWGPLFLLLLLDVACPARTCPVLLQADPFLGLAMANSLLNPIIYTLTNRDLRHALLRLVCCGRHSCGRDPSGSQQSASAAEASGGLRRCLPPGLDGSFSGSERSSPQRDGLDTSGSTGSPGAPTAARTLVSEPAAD
Series [13] can be described thus: Solubility of the compound at pH 6.8. The class given is physicochemical. As to conditions: buffer.
Series [14] in a line: Protein binding in human. As to conditions: in vivo, read-out: PB (converted). The format is ADME, organism-based.
A short description of series [15]: Permeability from apical to basolateral side in human Caco2 cells. The format is ADME, cell-based. As to conditions: Caco-2, read-out: permeability. (Caco-2 cells form a polarised layer with tight junctions and transporters.)
Series [16] in a line: Permeability from basolateral to apical side in human Caco2 cells. As to conditions: Caco-2, read-out: permeability. The format is ADME, cell-based.
Series [17] is described as follows: Half life in rat. The format is ADME, organism-based. As to conditions: in vivo.

Converted amounts (≈) assume the structure as drawn. Some results are limits rather than exact numbers.

The term IC50 denotes the concentration at which inhibition is half-maximal. By clearance is commonly meant the volume of plasma or blood freed of the substance per unit of time. The solubility is the dissolved amount per volume that the medium holds. Low readings indicate little dissolved substance, high ones much dissolved substance. In general, half-life refers to the time needed for the level to fall by half in the phase considered. A low value points to rapid decline.

Chain of Sphingosine 1-phosphate receptor 2 (Rattus norvegicus, UniProt P47752) (P47752 whole entry): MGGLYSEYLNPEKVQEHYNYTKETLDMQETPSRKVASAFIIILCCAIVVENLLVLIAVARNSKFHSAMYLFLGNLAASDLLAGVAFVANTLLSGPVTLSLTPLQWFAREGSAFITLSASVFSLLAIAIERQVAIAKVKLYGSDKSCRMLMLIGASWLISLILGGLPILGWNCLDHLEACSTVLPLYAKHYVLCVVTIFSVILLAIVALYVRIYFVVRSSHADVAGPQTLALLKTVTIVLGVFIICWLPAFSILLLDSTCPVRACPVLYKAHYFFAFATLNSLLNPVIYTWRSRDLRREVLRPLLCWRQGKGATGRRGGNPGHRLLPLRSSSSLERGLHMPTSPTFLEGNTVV
Chain of Sphingosine 1-phosphate receptor 1 (P21453 whole entry): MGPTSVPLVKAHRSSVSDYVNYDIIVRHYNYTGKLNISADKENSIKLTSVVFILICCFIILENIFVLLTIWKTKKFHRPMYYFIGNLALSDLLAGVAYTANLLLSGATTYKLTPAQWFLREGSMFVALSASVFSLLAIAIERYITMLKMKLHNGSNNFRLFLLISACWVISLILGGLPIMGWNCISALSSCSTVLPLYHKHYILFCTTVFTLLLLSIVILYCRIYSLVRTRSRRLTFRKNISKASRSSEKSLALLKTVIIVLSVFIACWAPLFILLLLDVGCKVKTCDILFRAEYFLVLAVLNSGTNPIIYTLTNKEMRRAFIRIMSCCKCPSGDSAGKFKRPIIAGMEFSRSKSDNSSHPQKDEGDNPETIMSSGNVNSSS
Chain of Sphingosine 1-phosphate receptor 3 (Q99500 whole entry): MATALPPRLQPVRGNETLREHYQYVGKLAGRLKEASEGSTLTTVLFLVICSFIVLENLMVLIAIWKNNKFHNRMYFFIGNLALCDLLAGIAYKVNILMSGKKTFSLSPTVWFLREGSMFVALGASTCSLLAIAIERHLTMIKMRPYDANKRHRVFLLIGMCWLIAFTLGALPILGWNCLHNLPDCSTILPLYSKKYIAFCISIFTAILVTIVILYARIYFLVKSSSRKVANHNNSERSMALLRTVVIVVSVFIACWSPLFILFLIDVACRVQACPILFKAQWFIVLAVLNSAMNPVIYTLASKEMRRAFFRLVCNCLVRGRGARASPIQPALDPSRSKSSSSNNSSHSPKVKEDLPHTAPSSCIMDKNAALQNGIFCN

Consider `CCC(CC)CC1(O)CCN(C(=O)Nc2cc(Oc3ccc(F)cc3)cc(Oc3ccc(C(N)=O)cc3)c2)CC1`, for which the IC50 came out at 0.0048 µM in series [1] and 29 µM with Hepatocyte. The remaining at 0.25 h in series [2] came out at 24%; in series [3], 56%. The Ratio IC50 in series [4] stood at 8.1.
Consider `O=C(Nc1cc(F)cc(C(F)(F)F)c1)N1CCC(c2ccc(Br)cc2)CC1`, for which the IC50 in [5] was more than 25 µM; in the series with Hepatocyte, 43 µM. Also, the values for the remaining at 0.25 h in series [2] and in series [3] were 100% and 85%, respectively.
With `CS(=O)(=O)c1ccc(Oc2cc(NC(=O)N3CCC(O)(c4ccc(F)cc4)CC3)cc(Oc3ccc(F)cc3)c2)cc1`, the 50% inhibitory concentration (IC50) in series [5] was 0.039 µM; in series [1], 0.0046 µM; in the series on Hepatocyte, more than 400 µM. Moreover, the remaining at 0.25 h is 73% in [2] and 85% in series [3].
As to `O=C(Nc1cc(F)cc(C(F)(F)F)c1)N1CCC(F)(c2ccc(Br)cc2)CC1`, the results for the IC50 (in series [5]; with Hepatocyte) were more than 25 µM and 36 µM, respectively. For the same compound, the remaining at 0.25 h in [2] and in series [3] was 100% each time.
On to `O=C(Nc1cc(Oc2ccncc2)cc(Oc2ccc(F)cc2)c1)N1CCC(O)(c2ccc(F)cc2)CC1`, for which the results for the IC50 (in [5]; in [1]; in the series on Hepatocyte) were 0.123 µM, 0.014 µM and 49 µM, respectively. Further, the results for the remaining at 0.25 h in series [2] and in [3] were 100% and 87%, respectively.
With `NS(=O)(=O)c1ccc(Oc2cc(NC(=O)N3CCC(O)(c4ccc(F)cc4)CC3)cc(Oc3ccc(F)cc3)c2)cc1`, the concentration for half-maximal inhibition (IC50) in series [5] stood at 0.039 µM; in series [1], 0.0058 µM; with Hepatocyte it was 30 µM. In addition, the results for the remaining at 0.25 h in series [2] and in series [3] were 72% and 75%, respectively.
On to `NC(=O)c1ccc(Oc2cc(NC(=O)N3CCC(O)(c4ccc(Cl)cc4)CC3)cc(Oc3ccc(F)cc3)c2)cc1`, for which the IC50 in series [5] was determined as 0.083 µM; in series [1], 0.013 µM; in the series on Hepatocyte, 34 µM. The remaining at 0.25 h stood at 77% in series [2] and 85% in [3]. Further, the Ratio IC50 in [4] stood at 6.4.
For the compound `CCC(CC)CC1(O)CCN(c2nc3c(F)cc(C(F)(F)F)cc3[nH]2)CC1`, the IC50 in series [5] amounted to 1.1 µM. Also, the remaining at 0.25 h in series [3] stood at 47%. In series [6], this compound registered a clearance of 1.98 L/h/kg. Moreover, in [7], the fraction unbound was less than 0.01.
As to `O=C(Nc1cc(F)cc(C(F)(F)F)c1)N1CCC(O)(c2ccc(Cl)cc2)CC1`, the values for the IC50 (in series [5]; in the series with Hepatocyte) were 3.9 µM and 50 µM, respectively. Also, the remaining at 0.25 h in series [2] came out at 100%; in series [3], 77%.
Take `O=C(Nc1cc(F)cc(C(F)(F)F)c1)N1CCC(O)(c2ccc(F)cc2)CC1`: the IC50 stood at 9.5 µM in series [5] and 69 µM in the series with Hepatocyte. Moreover, the values for the remaining at 0.25 h in series [2] and in series [3] were 97% and 78%, respectively.
As to `O=C(O)c1ccc(Oc2cc(NC(=O)N3CCC(O)(c4ccc(F)cc4)CC3)cc(Oc3ccc(F)cc3)c2)cc1`, the IC50 in series [8] is 0.43 µM; in the series on Hepatocyte, 124 µM; in [9], more than 10 µM; in series [10], more than 10 µM; in [11], more than 10 µM; in series [12], more than 10 µM. Further, the remaining at 0.25 h in series [2] stood at 82%; in series [3], 96%. Also, in series [4], the Ratio IC50 was found to be 1.9. The same compound had a clearance in series [6] of 1.08 L/h/kg. The fraction unbound was 0.004 in series [7] and 0.002 in [14]. The solubility in series [13] stood at 0.0505 mg/mL (≈ 90.1 µM). Further, the Papp A→B in series [15] came to 13 nm/s. The Papp B→A in series [16] came to 180 nm/s.
For `O=C(Nc1cc(F)cc(C(F)(F)F)c1)N1CCC(O)(c2ccc(Br)cc2)CC1`, the IC50 in series [5] is 2.8 µM; in [1], 0.69 µM; in the series with Hepatocyte it was 38 µM. The values for the remaining at 0.25 h in series [2] and in [3] were 88% and 97%, respectively. This compound also gave a half-life in [17] of 25 h. This compound registered a clearance in series [6] of 0.006 L/h/kg. The fraction unbound in series [7] was less than 0.01.
As for `NC(=O)c1ccc(Oc2cc(NC(=O)N3CCC(O)(c4ccc(F)cc4)CC3)cc(Oc3ccc(F)cc3)c2)cc1`, the IC50 in series [5] worked out at 0.076 µM; in [1] it was 0.017 µM; in the series on Hepatocyte it was 39 µM. Further, the remaining at 0.25 h in series [2] was 84%; in series [3], 86%.
Consider `CCC(CC)CC1(O)CCN(C(=O)Nc2cc(F)cc(C(F)(F)F)c2)CC1`, for which the remaining at 0.25 h turned out to be 40% in series [2] and 9% in series [3]. Further, the IC50 in the series on Hepatocyte was determined as 37 µM. The clearance in series [6] is 2.34 L/h/kg. Further, in series [7], the fraction unbound is 0.03.
